This passage reports MIC results from ChEMBL document CHEMBL3822432, “Antibacterial and anticancer activity of a series of novel peptides incorporating cyclic tetra-substituted C(α) amino acids” (Bioorg Med Chem, 2016).

Experiment [1] relates to Mycobacterium tuberculosis. The experiment is described as follows: Antibacterial activity against rifampin/isoniazid-resistant Mycobacterium tuberculosis CSU 45 SRI 1377 by two fold serial dilution method. The class given is functional.
Experiment [2] has as its system Mycobacterium tuberculosis. The experiment in a line: Antibacterial activity against ofloxacin-resistant Mycobacterium tuberculosis by two fold serial dilution method. Type of experiment: functional.

Values after ≈ are worked out from the molar mass of the structure shown. Non-standard residues stand in square brackets, D forms with d. Residues, ends and D or L forms follow the SMILES beside them. ξ: configuration not given here. Ac6c = NC1(C(=O)O)CCCCC1; Ac5c = NC1(C(=O)O)CCCC1; ξOrn = NCCCC(N)C(=O)O; ξDab = NCCC(N)C(=O)O; ξDap = NCC(N)C(=O)O

In the case of `CN[C@@H]1[C@H](O[C@H]2[C@H](O[C@H]3[C@H](O)[C@@H](O)[C@H](N=C(N)N)[C@@H](O)[C@@H]3N=C(N)N)O[C@@H](C)[C@]2(O)C=O)O[C@@H](CO)[C@H](O)[C@H]1O` [STREPTOMYCIN], the MIC was 0.8 µM (≈ 0.465 µg/mL) in experiment [1] and 3.4 µM (≈ 1.98 µg/mL) in experiment [2].
`CC(=O)N[C@@H](CCCCN)C(=O)N[C@@H](CCCCN)C(=O)N[C@@H](CCCCN)C(=O)N[C@@H](CCCCN)C(=O)NCC(=O)N[C@@H](Cc1ccccc1)C(=O)NC1(C(=O)NCC(=O)NC2(C(=O)N[C@@H](CCCCN)C(=O)NC3(C(=O)NCC(=O)NC4(C(=O)N[C@@H](Cc5ccccc5)C(=O)NC5(C(=O)NCC(=O)NC6(C(=O)NCC(=O)N[C@@H](CCCCN)C(=O)NC7(C(N)=O)CCCCC7)CCCCC6)CCCCC5)CCCCC4)CCCCC3)CCCCC2)CCCCC1` (Ac-KKKKGF[Ac6c]G[Ac6c]K[Ac6c]G[Ac6c]F[Ac6c]G[Ac6c]GK[Ac6c]-NH2): the MIC in experiment [1] was found to be 10.9 µM (≈ 25 µg/mL); in experiment [2], 5.47 µM (≈ 12.5 µg/mL).
Taken in the same sequence, the figures for `CC(=O)NCC(=O)N[C@@H](Cc1ccccc1)C(=O)NC1(C(=O)NCC(=O)NC2(C(=O)NC(CCCN)C(=O)NC3(C(=O)NCC(=O)NC4(C(=O)N[C@@H](Cc5ccccc5)C(=O)NC5(C(=O)NCC(=O)NC6(C(=O)NCC(=O)NC(CCCN)C(=O)NC7(C(=O)NC(CCCN)C(=O)NC(CCCN)C(=O)NC(CCCN)C(=O)NC(CCCN)C(N)=O)CCCCC7)CCCCC6)CCCCC5)CCCCC4)CCCCC3)CCCCC2)CCCCC1` (some centres undefined) (Ac-GF[Ac6c]G[Ac6c][ξOrn][Ac6c]G[Ac6c]F[Ac6c]G[Ac6c]G[ξOrn][Ac6c][ξOrn][ξOrn][ξOrn][ξOrn]-NH2) were 11.4 µM (≈ 25 µg/mL) and 11.4 µM (≈ 25 µg/mL).
The matching figures for `CC(=O)NCC(=O)N[C@@H](Cc1ccccc1)C(=O)NC1(C(=O)NCC(=O)N2Cc3ccccc3CC2C(=O)N[C@H](CCCCN)C(=O)NC2(C(=O)NCC(=O)N3Cc4ccccc4CC3C(=O)N[C@H](Cc3ccccc3)C(=O)NC3(C(=O)NCC(=O)N4Cc5ccccc5CC4C(=O)NCC(=O)N[C@H](CCCCN)C(=O)N4Cc5ccccc5CC4C(=O)N[C@H](CCCCN)C(=O)N[C@H](CCCCN)C(=O)N[C@H](CCCCN)C(=O)N[C@H](CCCCN)C(N)=O)CCCCC3)CCCCC2)CCCCC1` (some centres undefined): 20.7 µM (≈ 50 µg/mL) and 20.7 µM (≈ 50 µg/mL).
In the case of `CC(=O)NCC(=O)N[C@H](Cc1ccccc1)C(=O)NC1(C(=O)NCC(=O)N2C(C(=O)N[C@@H](CCCCN)C(=O)NC3(C(=O)NCC(=O)N4C(C(=O)N[C@@H](Cc5ccccc5)C(=O)NC5(C(=O)NCC(=O)N6C(C(=O)NCC(=O)N[C@@H](CCCCN)C(=O)N7C(C(=O)N[C@H](CCCCN)C(=O)N[C@H](CCCCN)C(=O)N[C@H](CCCCN)C(=O)N[C@H](CCCCN)C(N)=O)CC8CCCCC87)CC7CCCCC76)CCCCC5)CC5CCCCC54)CCCCC3)CC3CCCCC32)CCCCC1` (stereo in doubt), the minimal inhibitory concentration (MIC) in experiment [1] and in experiment [2] was 20.9 µM (≈ 50 µg/mL) each time.
Take `CC(=O)NCC(=O)N[C@@H](Cc1ccccc1)C(=O)NC1(C(=O)NCC(=O)NC2(C(=O)N[C@@H](CCCCN)C(=O)N[C@@H](CCCCN)C(=O)NC3(C(=O)NCC(=O)NC4(C(=O)N[C@@H](Cc5ccccc5)C(=O)NC5(C(=O)NCC(=O)NC6(C(=O)NCC(=O)N[C@@H](CCCCN)C(=O)N[C@@H](CCCCN)C(=O)NC7(C(=O)N[C@@H](CCCCN)C(=O)N[C@@H](CCCCN)C(=O)N[C@@H](CCCCN)C(=O)N[C@@H](CCCCN)C(N)=O)CCCCC7)CCCCC6)CCCCC5)CCCCC4)CCCCC3)CCCCC2)CCCCC1` (Ac-GF[Ac6c]G[Ac6c]KK[Ac6c]G[Ac6c]F[Ac6c]G[Ac6c]GKK[Ac6c]KKKK-NH2): the minimal inhibitory concentration (MIC) in experiment [1] and in experiment [2] was 4.92 µM (≈ 12.5 µg/mL) in each case.
Take `CC(=O)NCC(=O)N[C@@H](Cc1ccccc1)C(=O)NC1(C(=O)NCC(=O)NC2(C(=O)NC(CN)C(=O)NC3(C(=O)NCC(=O)NC4(C(=O)N[C@@H](Cc5ccccc5)C(=O)NC5(C(=O)NCC(=O)NC6(C(=O)NCC(=O)NC(CN)C(=O)NC7(C(=O)NC(CN)C(=O)NC(CN)C(=O)NC(CN)C(=O)NC(CN)C(N)=O)CCCCC7)CCCCC6)CCCCC5)CCCCC4)CCCCC3)CCCCC2)CCCCC1` (some centres undefined) (Ac-GF[Ac6c]G[Ac6c][ξDap][Ac6c]G[Ac6c]F[Ac6c]G[Ac6c]G[ξDap][Ac6c][ξDap][ξDap][ξDap][ξDap]-NH2): the minimal inhibitory concentration (MIC) in experiment [1] and in experiment [2] was 49.3 µM (≈ 100 µg/mL) each time.
`CC(=O)NCC(=O)N[C@@H](Cc1ccccc1)C(=O)NC1(C(=O)NCC(=O)NC2(C(=O)N[C@@H](CCCCN)C(=O)NC3(C(=O)NCC(=O)NC4(C(=O)N[C@@H](Cc5ccccc5)C(=O)NC5(C(=O)NCC(=O)NC6(C(=O)NCC(=O)N[C@@H](CCCCN)C(=O)NC7(C(=O)N[C@@H](CCCCN)C(=O)N[C@@H](CCCCN)C(=O)N[C@@H](CCCCN)C(=O)N[C@@H](CCCCN)C(N)=O)CCCC7)CCCCC6)CCCC5)CCCCC4)CCCC3)CCCCC2)CCCC1` (Ac-GF[Ac5c]G[Ac6c]K[Ac5c]G[Ac6c]F[Ac5c]G[Ac6c]GK[Ac5c]KKKK-NH2): the MIC in experiment [1] and in experiment [2] was 11.2 µM (≈ 25 µg/mL) each time.
For the compound `CC(=O)NCC(=O)N[C@@H](Cc1ccccc1)C(=O)NC1(C(=O)NCC(=O)NC2(C(=O)N[C@@H](CCCCN)C(=O)NC3(C(=O)NCC(=O)NC4(C(=O)N[C@@H](Cc5ccccc5)C(=O)NC5(C(=O)NCC(=O)NC6(C(=O)NCC(=O)N[C@@H](CCCCN)C(=O)NC7(C(=O)N[C@@H](CCCCN)C(=O)N[C@@H](CCCCN)C(=O)N[C@@H](CCCCN)C(=O)N[C@@H](CCCCN)C(N)=O)CCCC7)CCCC6)CCCC5)CCCC4)CCCC3)CCCC2)CCCC1` (Ac-GF[Ac5c]G[Ac5c]K[Ac5c]G[Ac5c]F[Ac5c]G[Ac5c]GK[Ac5c]KKKK-NH2), the minimal inhibitory concentration (MIC) in experiment [1] turned out to be 11.4 µM (≈ 25 µg/mL); in experiment [2] it was 22.9 µM (≈ 49.9 µg/mL).
The matching figures for `CC(=O)NCC(=O)N[C@@H](Cc1ccccc1)C(=O)NC1(C(=O)NCC(=O)NC2(C(=O)N[C@@H](CCCNC(=N)N)C(=O)NC3(C(=O)NCC(=O)NC4(C(=O)N[C@@H](Cc5ccccc5)C(=O)NC5(C(=O)NCC(=O)NC6(C(=O)NCC(=O)N[C@@H](CCCNC(=N)N)C(=O)NC7(C(=O)N[C@@H](CCCNC(=N)N)C(=O)N[C@@H](CCCNC(=N)N)C(=O)N[C@@H](CCCNC(=N)N)C(=O)N[C@@H](CCCNC(=N)N)C(N)=O)CCCC7)CCCC6)CCCC5)CCCC4)CCCC3)CCCC2)CCCC1` (Ac-GF[Ac5c]G[Ac5c]R[Ac5c]G[Ac5c]F[Ac5c]G[Ac5c]GR[Ac5c]RRRR-NH2): more than 43 µM and more than 43 µM.
For `CC(=O)NCC(=O)N[C@@H](Cc1ccccc1)C(=O)NC1(C(=O)NCC(=O)NC2(C(=O)N[C@@H](CCCNC(=N)N)C(=O)NC3(C(=O)NCC(=O)NC4(C(=O)N[C@@H](Cc5ccccc5)C(=O)NC5(C(=O)NCC(=O)NC6(C(=O)NCC(=O)N[C@@H](CCCNC(=N)N)C(=O)NC7(C(=O)N[C@@H](CCCNC(=N)N)C(=O)N[C@@H](CCCNC(=N)N)C(=O)N[C@@H](CCCNC(=N)N)C(=O)N[C@@H](CCCNC(=N)N)C(N)=O)CCCCC7)CCCCC6)CCCCC5)CCCCC4)CCCCC3)CCCCC2)CCCCC1` (Ac-GF[Ac6c]G[Ac6c]R[Ac6c]G[Ac6c]F[Ac6c]G[Ac6c]GR[Ac6c]RRRR-NH2), the results for the MIC in experiment [1] and in experiment [2] were 10.2 µM (≈ 25 µg/mL) and 40.8 µM (≈ 99.9 µg/mL), respectively.
Taken in the same sequence, the figures for `CC(=O)NCC(=O)N[C@@H](Cc1ccccc1)C(=O)NC1(C(=O)NCC(=O)NC2(C(=O)NC(CCN)C(=O)NC3(C(=O)NCC(=O)NC4(C(=O)N[C@@H](Cc5ccccc5)C(=O)NC5(C(=O)NCC(=O)NC6(C(=O)NCC(=O)NC(CCN)C(=O)NC7(C(=O)NC(CCN)C(=O)NC(CCN)C(=O)NC(CCN)C(=O)NC(CCN)C(N)=O)CCCCC7)CCCCC6)CCCCC5)CCCCC4)CCCCC3)CCCCC2)CCCCC1` (some centres undefined) (Ac-GF[Ac6c]G[Ac6c][ξDab][Ac6c]G[Ac6c]F[Ac6c]G[Ac6c]G[ξDab][Ac6c][ξDab][ξDab][ξDab][ξDab]-NH2) were 25.6 µM (≈ 54.3 µg/mL) and 25.6 µM (≈ 54.3 µg/mL).
